Experimental data as given in PubChem BioAssay AID2060484 (Molecular Pharmacology Branch, DTP, NCI, 2025).

System: SUM149PT spheroids with HUVEC/MSC, viability
Experiment: Anticancer human tumor SUM149PT cell line growth inhibition [GQUAD];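 note: spheroids exposed to drugs for seven days before readout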;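 for viability, T/C: percent viability relative to DMSO vehicle control taken as 100%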
Details: for IC50: curve of first compound; for viability, T/C: stronger effect = lower value
Summary of the method: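 Multi-cell-type spheroids of tumor cells with HUVEC and mesenchymal stem cells, treated with drug combinations. Concentrations descend in half-log steps from near clinical Cmax, or from 10 microM where Cmax is unknown; viability read-out.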

[1] = second compound 0.0316 µM, first compound 0.0316 µM
[2] = second compound 0.0316 µM, first compound 0.1 µM
[3] = second compound 0.0316 µM, first compound 0.316 µM
[4] = second compound 0.0316 µM, first compound 1 µM
[5] = second compound 0.0316 µM, first compound 3.16 µM
[6] = second compound 0.0316 µM, first compound 10 µM
[7] = second compound 0.1 µM, first compound 0.0316 µM
[8] = second compound 0.1 µM, first compound 0.1 µM
[9] = second compound 0.1 µM, first compound 0.316 µM
[10] = second compound 0.1 µM, first compound 1 µM
[11] = second compound 0.1 µM, first compound 3.16 µM
[12] = second compound 0.1 µM, first compound 10 µM
[13] = second compound 0.316 µM, first compound 0.0316 µM
[14] = second compound 0.316 µM, first compound 0.1 µM
[15] = second compound 0.316 µM, first compound 0.316 µM
[16] = second compound 0.316 µM, first compound 1 µM
[17] = second compound 0.316 µM, first compound 3.16 µM
[18] = second compound 0.316 µM, first compound 10 µM
[19] = second compound 1 µM, first compound 0.0316 µM
[20] = second compound 1 µM, first compound 0.1 µM
[21] = second compound 1 µM, first compound 0.316 µM
[22] = second compound 1 µM, first compound 1 µM
[23] = second compound 1 µM, first compound 3.16 µM
[24] = second compound 1 µM, first compound 10 µM
[25] = second compound 3.16 µM, first compound 0.0316 µM
[26] = second compound 3.16 µM, first compound 0.1 µM
[27] = second compound 3.16 µM, first compound 0.316 µM
[28] = second compound 3.16 µM, first compound 1 µM
[29] = second compound 3.16 µM, first compound 3.16 µM
[30] = second compound 3.16 µM, first compound 10 µM
[31] = second compound 10 µM, first compound 0.0316 µM
[32] = second compound 10 µM, first compound 0.1 µM
[33] = second compound 10 µM, first compound 0.316 µM
[34] = second compound 10 µM, first compound 1 µM
[35] = second compound 10 µM, first compound 3.16 µM
[36] = second compound 10 µM, first compound 10 µM

CCCS(=O)(=O)Nc1ccc(F)c(C(=O)c2c[nH]c3ncc(-c4ccc(Cl)cc4)cc23)c1F + Cc1cnc(CNC(=O)c2c(=O)c3ccc(N4CCCN(C)CC4)nc3n3c2sc2ccccc23)cn1
IC50 (second compound 0.0316 µM): 5870 nM | IC50 (second compound 0.1 µM): 3100 nM | IC50 (second compound 0.316 µM): 1450 nM | IC50 (second compound 1 µM): < 31.6 nM | IC50 (second compound 3.16 µM): < 31.6 nM | IC50 (second compound 10 µM): < 31.6 nM | viability, T/C [1]: 80% | viability, T/C [2]: 76.5% | viability, T/C [3]: 96.1% | viability, T/C [4]: 88.6% | viability, T/C [5]: 67.5% | viability, T/C [6]: 34.9% | viability, T/C [7]: 67.8% | viability, T/C [8]: 68.3% | viability, T/C [9]: 79.3% | viability, T/C [10]: 66.5% | viability, T/C [11]: 50% | viability, T/C [12]: 33.2% | viability, T/C [13]: 51.9% | viability, T/C [14]: 57.5% | viability, T/C [15]: 56.5% | viability, T/C [16]: 52.9% | viability, T/C [17]: 43.2% | viability, T/C [18]: 31% | viability, T/C [19]: 51.5% | viability, T/C [20]: 46% | viability, T/C [21]: 44.6% | viability, T/C [22]: 46.6% | viability, T/C [23]: 37.7% | viability, T/C [24]: 25.4% | viability, T/C [25]: 37.5% | viability, T/C [26]: 38% | viability, T/C [27]: 43.1% | viability, T/C [28]: 38% | viability, T/C [29]: 37% | viability, T/C [30]: 23.4% | viability, T/C [31]: 0.2% | viability, T/C [32]: 11.8% | viability, T/C [33]: 0.67% | viability, T/C [34]: 11.7% | viability, T/C [35]: 2.28% | viability, T/C [36]: 2.88%

COc1ncnc(C2CC2)c1-c1ncc2cnn(Cc3ccc(-c4nc(C(F)(F)F)cn4C(C)C)cc3)c2n1 + Cc1cnc(CNC(=O)c2c(=O)c3ccc(N4CCCN(C)CC4)nc3n3c2sc2ccccc23)cn1
IC50 (second compound 0.0316 µM): > 10000 nM | IC50 (second compound 0.1 µM): 31.6 nM | IC50 (second compound 0.316 µM): < 31.6 nM | IC50 (second compound 1 µM): < 31.6 nM | IC50 (second compound 3.16 µM): < 31.6 nM | IC50 (second compound 10 µM): < 31.6 nM | viability, T/C [1]: 87.3% | viability, T/C [2]: 63.3% | viability, T/C [3]: 62.1% | viability, T/C [4]: 61.9% | viability, T/C [5]: 70.5% | viability, T/C [6]: 81.5% | viability, T/C [7]: 55.3% | viability, T/C [8]: 57.5% | viability, T/C [9]: 45.2% | viability, T/C [10]: 48.1% | viability, T/C [11]: 57.1% | viability, T/C [12]: 62.7% | viability, T/C [13]: 45.1% | viability, T/C [14]: 50.3% | viability, T/C [15]: 45.6% | viability, T/C [16]: 43.1% | viability, T/C [17]: 48.1% | viability, T/C [18]: 56.1% | viability, T/C [19]: 37.4% | viability, T/C [20]: 38.4% | viability, T/C [21]: 47.1% | viability, T/C [22]: 41.4% | viability, T/C [23]: 40% | viability, T/C [24]: 49.4% | viability, T/C [25]: 35% | viability, T/C [26]: 32.9% | viability, T/C [27]: 34.1% | viability, T/C [28]: 33.5% | viability, T/C [29]: 40% | viability, T/C [30]: 39.1% | viability, T/C [31]: 0.16% | viability, T/C [32]: 11.9% | viability, T/C [33]: 27.6% | viability, T/C [34]: 11% | viability, T/C [35]: 3.43% | viability, T/C [36]: 1.12%

O=C(NO)c1cnc(N2CCN(S(=O)(=O)c3ccc4ccccc4c3)CC2)nc1 + Cc1cnc(CNC(=O)c2c(=O)c3ccc(N4CCCN(C)CC4)nc3n3c2sc2ccccc23)cn1
IC50 (second compound 0.0316 µM): 124 nM | IC50 (second compound 0.1 µM): 184 nM | IC50 (second compound 0.316 µM): 121 nM | IC50 (second compound 1 µM): < 31.6 nM | IC50 (second compound 3.16 µM): < 31.6 nM | IC50 (second compound 10 µM): < 31.6 nM | viability, T/C [1]: 90.1% | viability, T/C [2]: 47.7% | viability, T/C [3]: 42.7% | viability, T/C [4]: 0.16% | viability, T/C [5]: 0.95% | viability, T/C [6]: 3.31% | viability, T/C [7]: 65.5% | viability, T/C [8]: 52.9% | viability, T/C [9]: 41.9% | viability, T/C [10]: 0.15% | viability, T/C [11]: 0.63% | viability, T/C [12]: 2.26% | viability, T/C [13]: 51.9% | viability, T/C [14]: 54% | viability, T/C [15]: 35.9% | viability, T/C [16]: 2.48% | viability, T/C [17]: 0.95% | viability, T/C [18]: 0.63% | viability, T/C [19]: 48.3% | viability, T/C [20]: 45.7% | viability, T/C [21]: 34% | viability, T/C [22]: 1.85% | viability, T/C [23]: 1.22% | viability, T/C [24]: 0.11% | viability, T/C [25]: 39% | viability, T/C [26]: 37.8% | viability, T/C [27]: 27.7% | viability, T/C [28]: 0.11% | viability, T/C [29]: 0.1% | viability, T/C [30]: 0.32% | viability, T/C [31]: 0.2% | viability, T/C [32]: 2.04% | viability, T/C [33]: 1.16% | viability, T/C [34]: 0.97% | viability, T/C [35]: 0.39% | viability, T/C [36]: 2.62%
